Data as given in ChEMBL document CHEMBL1649272, “Unbound cephalothin pharmacokinetics in adult burn patients are related to the elapsed time after injury” (Antimicrob Agents Chemother, 2009).

Key:
Homo sapiens [1] = test: Clearance in healthy human at 1 g, iv; details: in vivo
[2] = Terminal half life in patient with severe burns at 1 g, iv; assay type: ADME, organism-based; details: human, in vivo, read-out: beta t1/2 (converted)
[3] = Mean residence time in healthy human at 1 g, iv; assay type: ADME, organism-based; details: in vivo
[4] = Terminal half life in healthy human at 1 g, iv; assay type: ADME, organism-based; details: in vivo, read-out: beta t1/2 (converted)
[5] = Mean residence time in patient with severe burns at 1 g, iv; assay type: ADME, organism-based; details: human, in vivo
[6] = Cmax in healthy human at 1 g, iv; assay type: ADME, organism-based; parameters: dose 1 g, route intravenous; details: in vivo
[7] = Half life in healthy human at 1 g, iv; assay type: ADME, organism-based; details: in vivo
[8] = Plasma protein binding in healthy human at 1 g, iv; assay type: ADME, cell-free; details: read-out: PPB (converted)
[9] = Renal clearance in patient with severe burns at 1 g, iv; assay type: ADME, organism-based, Kidney; details: human, in vivo, read-out: CL_renal
Homo sapiens [10] = test: AUC (0 to infinity) in patient with severe burns at 1 g, iv; assay type: ADME, organism-based, Plasma; parameters: dose 1 g, time infinity, route intravenous; details: in vivo
[11] = Plasma protein binding in patient with severe burns at 1 g, iv; assay type: ADME, cell-free; details: human, read-out: PPB (converted)
Homo sapiens [12] = test: AUC (0 to infinity) in healthy human at 1 g, iv; assay type: ADME, organism-based, Plasma; parameters: dose 1 g, time infinity, route intravenous; details: in vivo
[13] = Volume of distribution at steady state in healthy human at 1 g, iv; assay type: ADME, organism-based; details: in vivo, read-out: Vdss
[14] = Half life in patient with severe burns at 1 g, iv; assay type: ADME, organism-based; details: human, in vivo
[15] = Renal clearance in healthy human at 1 g, iv; assay type: ADME, organism-based, Kidney; details: in vivo, read-out: CL_renal
Homo sapiens [16] = test: Clearance in patient with severe burns at 1 g, iv; details: in vivo
[17] = Cmax in patient with severe burns at 1 g, iv; assay type: ADME, organism-based; parameters: dose 1 g, route intravenous; details: human, in vivo
[18] = Volume of distribution at steady state in patient with severe burns at 1 g, iv; assay type: ADME, organism-based; details: human, in vivo, read-out: Vdss

`CC(=O)OCC1=C(C(=O)O)N2C(=O)[C@@H](NC(=O)Cc3cccs3)[C@H]2SC1` [CEPHALOTHIN] gave a CL (Homo sapiens [1]) of 26.3 mL/min/kg, a half-life [2] of 54.6 min and an MRT [3] of 22.8 min. The half-life [4] was 44.4 min, the MRT [5] was 35.4 min and the Cmax [6] was 21300 ng/mL. For the same compound, the half-life [7] was 15.6 min, the fraction unbound [8] was 0.29 and the CL renal [9] was 148 mL/min. The AUC (Homo sapiens [10]) was 12000 ng·h/mL, the fraction unbound [11] was 0.41 and the AUC (Homo sapiens [12]) was 9890 ng·h/mL. It also gave a Vd [13] of 0.6 L/kg, a half-life [14] of 24.6 min and a CL renal [15] of 98 mL/min. The CL (Homo sapiens [16]) was 19.8 mL/min/kg, the Cmax [17] was 38700 ng/mL and the Vd [18] was 0.63 L/kg.
